“Also recorded” adds a separate entry of the source. Read-outs that look alike come from different tables or passages of the source.
Tests used:
EAE = settings: in vivo; cited from earlier work
MMP-9 = assay: MMP enzyme activity in gelatin zymography, test agent in wash and reaction buffer; assay type: biochemical, Baby Hamster Kidney (BHK) cells and human T lymphocytes; settings: agent in incubation buffers during zymogram development; MMP-9 from BHK cells or T lymphocytes
Source text: The analysis of cell conditioned medium in zymography is a reflection of the amount of MMPs that was produced by the particular culture. […] An inhibitor of MMP activity prevents gelatin degradation by gelatinases and the resultant size of the band of gelatinases would be smaller as compared to that obtained in the absence of inhibitors.

[1] = test system: T lymphocyte - U937 co-culture; settings: pretreatment of the PMA/IFNγ-treated U937 cells instead of T lymphocytes
Procedure: (§1) Cells were left for 69 h at 37° C., then collected, counted and resuspended in fresh AIM-V at density of 500,000 cells per ml. […] Thereafter, 500 μl (250,000 cells) of the suspension was taken for migration assays described below. Alternatively, 100 μl (50,000 cells) of cell suspension was added to each individual well of a 96-well plate already containing microglia or U937 monocytoid cells (see below).
A human promonocytoid cell line, U937, was also employed. Members of this cell line become microglia-like, as assessed by morphology and expression of cell surface molecules, when treated sequentially with 50 ng/ml of a protein kinase C activator, phorbol-12-myristate-13-acetate (PMA) (time 0–48) and 100 U/ml interferon-γ (IFNγ) (from 48–72 h).
Cells were used 1–3 days after the IFNγ treatment. As with microglia, 50,000 T lymphocytes in AIM-V was added to individual wells of a 96-well plate already containing 25,000 PMA/IFNγ-treated U937 cells, and conditioned medium was collected after 24 h of co-cultures.
(§2) Cytokine protein levels in the conditioned medium of microglia-T lymphocyte co-cultures were measured using enzyme-linked immunoabsorbent assay (ELISA) kits bought from BioSource International (Montreal, Canada).

experimental GVHD = settings: higher doses and/or more frequent administration; mice; cited from earlier work
[2] = test system: MMP-9 production by T lymphocytes; assay: MMP-9 production by anti-CD3 activated T lymphocytes (zymography of conditioned medium); assay type: cell-based, human; settings: 25 μg/ml, for 1, 2 or 3 d
Procedure: (§3) Heparinized blood was collected from normal volunteers, and subjected to Ficoll-Hypaque (Pharmacia Biotech, Mississauga, Ontario) centrifugation to obtain peripheral blood mononuclear cells (PEMNCs) as described previously (15). After two washes, cells were suspended at a density of 1–2 million/ml in horizontal T-25 flasks (Nunc, Becton Dickinson, Mississauga, Ontario) in the serum free medium, AIM-V (GIBCO/BRL), to which 1 ng/ml of an anti-CD3 antibody (OKT3, compliments of Jack Antel, Montreal, Canada) was added. Three hours after the anti-CD3 addition, the T-25 flasks were stood upright from their horizontal position in order to […] monocytes that had adhered. Floating cells, which were mostly lymphocytes, were left for a period of 72 hours at 37° C. […] Henceforth, given that the majority of cells in the MNC population are T lymphocytes, these will be referred to as T lymphocytes.
as §1

[3] = test system: MMP-9 production by monocytes; settings: after 1 day of treatment
Procedure: To produce monocyte-enriched cultures, 2×10^5 PBMC were suspended in 100 μl of AIM-V medium and placed into each well of a 96-well plate. One hour after, floating cells were removed to leave behind adherent monocytes. Fresh 100 μl of AIM-V was added per well and cultures were kept at 37° C.
Supernatant was collected, mixed in a 3.1 ratio (v/v) with 4× gel-loading SDS buffer, and used in zymographic assays. Similarly, for monocytes in wells of 96-well plates, conditioned medium was collected, microfuged, and mixed with 4× gel-loading SDS buffer.
Zymography is essentially SDS-PAGE except that gelatin is also added to the gel (77, 82). After proteins were resolved based on molecular weight in SDS-PAGE, the gel was washed in a Triton X-100 buffer in order to remove SDS which thus allows protein renaturation. In a calcium-containing “reaction buffer” (77), gelatinases (MMP-2 and -9) degraded gelatin in their immediate vicinity (other members of MMPs would also be detected if present in high amounts). Following staining in Coommasie blue, which binds all proteins, and destaining , areas containing gelatinases appeared as clear bands against a dark background, since the gelatin in its immediate vicinity has been degraded. The size of the MMP bands was a reflection of the amount of MMP that was produced by cells, and this was documented by NIH image analysis software.

[4] = test system: lymphocytes from relapsing-remitting multiple sclerosis patients; settings: patients on Copolymer 1 compared to untreated multiple sclerosis patients; cited from earlier work
T lymphocytes [5] = assay: Migration assay across fibronectin-coated Boyden chamber; assay type: cell-based, human
Procedure: as §1
To address the migration capacity of T lymphocytes, 2×10^5 T lymphocytes in 500 μl of 2.5% fetal calf serum (FCS) containing AIM-V were seeded into the top compartment of a Boyden chamber (Collaborative Biomedical Products, Bedford, Md.). This chamber consists of two compartments separated by a polycarbonate membrane filter (9 mm in diameter, with 3 μm pores) precoated on its upper surface with fibronectin. Fibronectin was employed to simulate the basal lamina.
The bottom compartment of the migration chamber contained 10% FCS-supplemented AIM-V; the higher concentration of FCS in the bottom chamber served as a directional gradient (77). After 5 h at 37° C., the content of the lower chamber was collected, and the number of migrated T lymphocytes was counted with the Coulter Counter Z1.

T-cell responses to MBP = settings: dose-dependent; cited from earlier work
T lymphocytes [6] = settings: for total number of cells after 72 h: control 24±2
Procedure: as §3, §1

[7] = test system: CXCR3 and CXCR4 on U937 cells; settings: 25 μg/ml, 1 or 3 days
Source text: Chemokine and chemokine receptor expression are currently recognized to be important mechanisms that regulate the influx of leukocytes into the CNS. Notable is the up-regulation of the chemokine IP-10 and its receptor CXCR3 in the lesions of multiple sclerosis patients (74).

MHC class II molecules = settings: irrespective of MHC restriction, dose-dependent; cited from earlier work
[8] = test system: T lymphocyte - adult human microglia co-culture; settings: added at the time of co-culture instead of pretreatment
Procedure: as §1
Adult human microglia were isolated from the resected brain tissue of patients undergoing surgical resection to treat intractable epilepsy. […] Cells were used for interactions with T lymphocytes in a manner identical to that described for their fetal counter parts.
as §2

Compound: C=CC[C@H](C(=O)NO)[C@@H](CC(C)C)C(=O)N[C@@H](Cc1ccccc1)C(=O)NC [BB-1101]
- incidence and severity of EAE (EAE): alleviate

Compound: TIMP-1: positive control shown to inhibit MMP activity in the zymography assay
- inhibition of MMP-9 enzymatic activity (size of gelatinase band in zymogram) (MMP-9): inhibit MMP activity

Compound: CNC(=O)[C@@H](NC(=O)[C@@H](CC(=O)NO)CC(C)C)C(C)(C)C [Ro31-9790]
- incidence and severity of EAE (EAE): alleviate

Compound: CNC(=O)[C@H](Cc1c[nH]c2ccccc12)NC(=O)[C@@H](CC(=O)NO)CC(C)C [GM6001]
- incidence and severity of EAE (EAE): alleviate

Compound: L-glutamic acid polymer with L-alanine, L-lysine and L-tyrosine, acetate (salt) [Copolymer 1]
- cytokine production in subsequent T lymphocyte - U937 interactions [1]: did not influence
- experimental GVHD (experimental GVHD): prevent
- production of MMP-9 by T lymphocytes compared to controls [2]: did not affect
- monocyte production of MMP-9 [3]: unaffected
- capacity of lymphocytes to transmigrate across a fibronectin barrier [4]: significantly reduced
- migration rate of pre-treated T lymphocytes versus controls (T lymphocytes [5]; 10 ng/ml MCP-1 or MCP-3 in bottom chamber as chemotactic signal): did not differ
- migration of T lymphocytes across fibronectin barrier compared to controls (T lymphocytes [5]; 25 μg/ml pretreatment for 1, 2 or 3 days): did not inhibit; also recorded: did not affect
- transmigration of activated T lymphocytes (T lymphocytes [5]; 3-day pretreatment, various concentrations 1 to 50 μg/ml): did not affect
- in vitro T-cell responses to MBP (T-cell responses to MBP): inhibited
- number or size of T lymphocyte aggregates after anti-CD3 treatment (proliferation) (T lymphocytes [6]): does not decrease
- total number of cells after 72 h (T lymphocytes [6]; 5 μg/ml): 26±1 ×10^3
- total number of cells after 72 h (T lymphocytes [6]; 25 μg/ml): 26±2 ×10^3
- total number of cells after 72 h (T lymphocytes [6]; 50 μg/ml): 22±1 ×10^3
- CXCR4 expression on U937 cells [7]: does not affect
- binding to antigen presenting cells / MHC class II molecules (MHC class II molecules): binds
- inhibition of MMP-9 enzymatic activity (size of gelatinase band in zymogram) (MMP-9): dose-dependently reduced; also recorded: inhibits
- reducing effect on cytokine production [8]: does not occur

Compound: c1cnc2c(c1)ccc1cccnc12 [phenanthroline]
- inhibition of MMP-9 enzymatic activity (size of gelatinase band in zymogram) (MMP-9): inhibit MMP activity
